{"source": "ChEMBL document CHEMBL6103591", "about": "“Discovery of naphthoquinone-furo-piperidone derivatives as dual targeting agents of STAT3 and NQO1 for the treatment of breast cancer” (Eur J Med Chem, 2025)", "key": {"[1]": {"assay": "Toxicity in female BALB/c nude mouse xenografted with human MDA-MB-231 cells assessed as body weight loss at 5 to 10 mg/kg, ip administered daily and measured every 2 days for 21 days", "type": "organism-based", "settings": "in vivo, 504 h, dose 5-10 mg/kg, time 21 day"}, "[2]": {"assay": "Toxicity in female BALB/c nude mouse xenografted with human MDA-MB-231 cells assessed as morphological change in liver at 5 to 10 mg/kg, ip administered daily and measured every 2 days for 21 days by hematoxylin and eosin staining based analysis", "type": "organism-based", "settings": "in vivo, 504 h, dose 5-10 mg/kg, time 21 day"}, "[3]": {"assay": "Toxicity in female BALB/c nude mouse xenografted with human MDA-MB-231 cells assessed as morphological change in spleen at 5 to 10 mg/kg, ip administered daily and measured every 2 days for 21 days by hematoxylin and eosin staining based analysis", "type": "organism-based", "settings": "in vivo, 504 h, dose 5-10 mg/kg, time 21 day"}, "[4]": {"assay": "Toxicity in female BALB/c nude mouse xenografted with human MDA-MB-231 cells assessed as morphological change in kidney at 5 to 10 mg/kg, ip administered daily and measured every 2 days for 21 days by hematoxylin and eosin staining based analysis", "type": "organism-based", "settings": "in vivo, 504 h, dose 5-10 mg/kg, time 21 day"}, "MDA-MB-231 [5]": {"system": "MDA-MB-231", "assay": "Antitumor activity against human MDA-MB-231 cells xenografted in female BALB/c nude mouse assessed as tumor growth inhibition at 10 mg/kg, ip administered daily and measured every 2 days for 21 days relative to control", "type": "functional", "settings": "MDA-MB-231, 504 h, time 21 day, read-out: TGI"}, "[6]": {"assay": "Toxicity in female BALB/c nude mouse xenografted with human MDA-MB-231 cells assessed as morphological change in lung at 5 to 10 mg/kg, ip administered daily and measured every 2 days for 21 days by hematoxylin and eosin staining based analysis", "type": "organism-based", "settings": "in vivo, 504 h, dose 5-10 mg/kg, time 21 day"}, "MDA-MB-231 [7]": {"system": "MDA-MB-231", "assay": "Antitumor activity against human MDA-MB-231 cells xenografted in female BALB/c nude mouse assessed as tumor growth inhibition at 5 mg/kg, ip administered daily and measured every 2 days for 21 days relative to control", "type": "functional", "settings": "MDA-MB-231, 504 h, time 21 day, read-out: TGI"}, "[8]": {"assay": "Toxicity in female BALB/c nude mouse xenografted with human MDA-MB-231 cells assessed as morphological change in heart at 5 to 10 mg/kg, ip administered daily and measured every 2 days for 21 days by hematoxylin and eosin staining based analysis", "type": "organism-based", "settings": "in vivo, 504 h, dose 5-10 mg/kg, time 21 day"}}}
{"smiles": "Cl.O=C1C(=O)c2c(oc3c2CCN(CCN2CCCCC2)C3=O)-c2ccccc21", "values": [{"measurement": "Activity", "setting": "[1]", "result": "Non-toxic"}, {"measurement": "Activity", "setting": "[2]", "result": "Non-toxic"}, {"measurement": "Activity", "setting": "[3]", "result": "Non-toxic"}, {"measurement": "Activity", "setting": "[4]", "result": "Non-toxic"}, {"measurement": "inhibition in vivo at 10 mg/kg", "setting": "MDA-MB-231 [5]", "result": 56.8, "unit": "%"}, {"measurement": "Activity", "setting": "[6]", "result": "Non-toxic"}, {"measurement": "inhibition in vivo at 5 mg/kg", "setting": "MDA-MB-231 [7]", "result": 28.9, "unit": "%"}, {"measurement": "Activity", "setting": "[8]", "result": "Non-toxic"}]}
